Test results reported in US9227971B2, “Pyrazolo[1,5-a]pyrimidine compounds as mTOR inhibitors” (Merck Sharp & Dohme Corp., priority 2010, dated 2016).
Like-named read-outs stand apart in the source and are kept apart here.

Assays:
[1] = system: phosphorylated AKT Ser473 (pAKT S473), mTORC2 activity, PC3 cells; assay: mTOR target engagement assay, immunofluorescent cell-based, pAKT S473 readout (mTORC2 activity); conditions: Homo sapiens
In short: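 After blocking, cells were stained overnight at 4 °C with anti-pAKT S473 antibody, then a fluorescent secondary; inhibition was read as reduced fluorescence intensity.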

[2] = system: phosphorylated 4E-BP1 Thr37/46 (p4E-BP1 Thr37/46), mTORC1 activity, PC3 cells; assay: mTOR target engagement assay, immunofluorescent cell-based, p4E-BP1 Thr37/46 readout (mTORC1 activity); conditions: Homo sapiens, read-out: p4E-BP1 Thr37/46 IC50
In short: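 Cell-based immunofluorescence in PC3 cells: serially diluted compounds (0.25% DMSO, 5% FBS) applied for ninety minutes at 37° C before fixation and overnight 4° C staining of p4E-BP1 Thr37/46. Untreated DMSO wells set maximal phosphorylation; IC50 obtained by logistic fitting.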

[3] = PC-3, PC3 cells, compound treatment ninety minutes at 37° C.

Structure (SMILES)	IC50 ([1]; PC-3, Table 3-1, PC3 cells) [nM]	IC50 ([2]; PC-3, Table 3-1, PC3 cells) [nM]	IC50 [1, 3] [nM]	IC50 [2, 3] [nM]	also measured
CS(=O)(=O)c1c([C@@H]2C[C@H]3CC[C@@H](C2)N3C(=O)c2nnc[nH]2)nc2c(-c3ccc(-c4ccc(F)cc4F)nc3)cnn2c1N [Compound 3.108, ((1R,3s,5S)-3-(7-amino-3-(6-(2,4-difluorophenyl)pyridin-3-yl)-6-(methylsulfonyl)pyrazolo[1,5-a]pyrimidin-5-yl)-8-azabicyclo[3.2.1]octan-8-yl)(4H-1,2,4-triazol-3-yl)methanone]	1 to 100	1 to 100			
CS(=O)(=O)c1c([C@@H]2C[C@H]3CC[C@@H](C2)N3c2ncncc2N)nc2c(-c3ccc(-c4ccccc4)nc3)cnn2c1N [Compound 8.64, 5-((1R,3s,5S)-8-(5-aminopyrimidin-4-yl)-8-azabicyclo[3.2.1]octan-3-yl)-6-(methylsulfonyl)-3-(6-phenylpyridin-3-yl)pyrazolo[1,5-a]pyrimidin-7-amine]					IC50 ([1]; PC-3, PC3 cells): 100 to 1000 nM; IC50 ([2]; PC-3, PC3 cells): 1000 to 10000 nM
CC(=O)c1c([C@@H]2C[C@H]3CC[C@@H](C2)N3C(=O)c2nnc[nH]2)nc2c(-c3ccc(C4(O)CCCC4)nc3)cnn2c1N [Compound 7.50, 1-(5-((1R,3s,5S)-8-(4H-1,2,4-triazole-3-carbonyl)-8-azabicyclo[3.2.1]octan-3-yl)-7-amino-3-(6-(1-hydroxycyclopentyl)pyridin-3-yl)pyrazolo[1,5-a]pyrimidin-6-yl)ethanone]					IC50 ([1]; PC-3, Table 7-8, PC3 cells): 1 to 100 nM; IC50 ([2]; PC-3, Table 7-8, PC3 cells): 1 to 100 nM
COCCOCC(=O)N1[C@@H]2CC[C@H]1C[C@H](c1nc3c(-c4ccc(-c5ccccc5)nc4)cnn3c(N)c1S(C)(=O)=O)C2 [Compound 3.72, 1-((1R,3s,5S)-3-(7-amino-6-(methylsulfonyl)-3-(6-phenylpyridin-3-yl)pyrazolo[1,5-a]pyrimidin-5-yl)-8-azabicyclo[3.2.1]octan-8-yl)-2-(2-methoxyethoxy)ethanone]	1000 to 10000	1000 to 10000			
Cc1cnc(-c2ccc(-c3cnn4c(N)c(S(C)(=O)=O)c([C@H]5CC6CC[C@H](C5)N6C(=O)c5cn[nH]n5)nc34)cn2)s1 [Compound 3.181, ((1R,3s,5S)-3-(7-amino-6-(methylsulfonyl)-3-(6-(5-methylthiazol-2-yl)pyridin-3-yl)pyrazolo[1,5-a]pyrimidin-5-yl)-8-azabicyclo[3.2.1]octan-8-yl)(2H-1,2,3-triazol-4-yl)methanone]	100 to 1000	1 to 100			
COc1ccc(-c2ccc(-c3cnn4c(N)c(C(C)=O)c([C@@H]5C[C@H]6CC[C@@H](C5)N6C(=O)c5nnc[nH]5)nc34)cn2)cc1F [Compound 1.1.57, 1-(5-((1R,3s,5S)-8-(4H-1,2,4-triazole-3-carbonyl)-8-azabicyclo[3.2.1]octan-3-yl)-7-amino-3-(6-(3-fluoro-4-methoxyphenyl)pyridin-3-yl)pyrazolo[1,5-a]pyrimidin-6-yl)ethanone]			1 to 100	1 to 100	
CS(=O)(=O)c1c([C@@H]2C[C@H]3CC[C@@H](C2)N3C(=O)c2nc(N)n[nH]2)nc2c(-c3ccc(-c4ccccc4)nc3)cnn2c1N [Compound 3.98, (3-amino-1H-1,2,4-triazol-5-yl)((1R,3s,5S)-3-(7-amino-6-(methylsulfonyl)-3-(6-phenylpyridin-3-yl)pyrazolo[1,5-a]pyrimidin-5-yl)-8-azabicyclo[3.2.1]octan-8-yl)methanone]	1 to 100	1 to 100			
CS(=O)(=O)c1c([C@H]2CC3CC[C@H](C2)N3C(=O)c2cc[nH]n2)nc2c(-c3ccc(C(O)C(F)(F)F)nc3)cnn2c1N (stereo partly drawn) [Compound 7.69, ((1R,3s,5S)-3-(7-amino-6-(methylsulfonyl)-3-(6-(2,2,2-trifluoro-1-hydroxyethyl)pyridin-3-yl)pyrazolo[1,5-a]pyrimidin-5-yl)-8-azabicyclo[3.2.1]octan-8-yl)(1H-pyrazol-3-yl)methanone]					IC50 ([1]; PC-3, PC3 cells): 1000 to 10000 nM; IC50 ([2]; PC-3, PC3 cells): 1000 to 10000 nM
Nc1c(C2CC2)c([C@@H]2C[C@H]3CC[C@@H](C2)N3C(=O)NCCO)nc2c(-c3ccc(-c4ccccc4)nc3)cnn12 [Compound 4.8, (1R,3s,5S)-3-(7-amino-6-cyclopropyl-3-(6-phenylpyridin-3-yl)pyrazolo[1,5-a]pyrimidin-5-yl)-N-(2-hydroxyethyl)-8-azabicyclo[3.2.1]octane-8-carboxamide]			1 to 100	100 to 1000	
CS(=O)(=O)c1c([C@@H]2C[C@H]3CC[C@@H](C2)N3C(=O)c2nnc[nH]2)nc2c(-c3ccc(CO)nc3)cnn2c1N [Compound 7.35, ((1R,3s,5S)-3-(7-amino-3-(6-(hydroxymethyl)pyridin-3-yl)-6-(methylsulfonyl)pyra-zolo[1,5-a]pyrimidin-5-yl)-8-azabicyclo[3.2.1]octan-8-yl)(4H-1,2,4-triazol-3-yl)methanone]					IC50 ([1]; PC-3, Table 7-5, PC3 cells): 100 to 1000 nM; IC50 ([2]; PC-3, Table 7-5, PC3 cells): 100 to 1000 nM
CC(=O)c1c([C@@H]2C[C@H]3CC[C@@H](C2)N3C(=O)c2cc[nH]n2)nc2c(-c3ccc(C(O)C(F)(F)F)nc3)cnn2c1N (stereo partly drawn) [Compound 7.66, 1-(5-((1R,3s,5S)-8-(1H-pyrazole-3-carbonyl)-8-azabicyclo[3.2.1]octan-3-yl)-7-amino-3-(6-(2,2,2-trifluoro-1-hydroxyethyl)pyridin-3-yl)pyrazolo[1,5-a]pyrimidin-6-yl)ethanone]					IC50 ([1]; PC-3, PC3 cells): 1000 to 10000 nM; IC50 ([2]; PC-3, PC3 cells): 100 to 1000 nM
Nc1c(C2CC2)c([C@@H]2C[C@H]3CC[C@@H](C2)N3C(=O)c2nnc[nH]2)nc2c(-c3ccc(-c4ccc(OC(F)F)cc4)nc3)cnn12 [Compound 4.15, ((1R,3s,5S)-3-(7-amino-6-cyclopropyl-3-(6-(4-(difluoromethoxy)phenyl)pyridin-3-yl)pyrazolo[1,5-a]pyrimidin-5-yl)-8-azabicyclo[3.2.1]octan-8-yl)(4H-1,2,4-triazol-3-yl)methanone]			100 to 1000	100 to 1000	
CS(=O)(=O)c1c([C@@H]2C[C@H]3CC[C@@H](C2)N3C(=O)c2nnc[nH]2)nc2c(-c3cnn(-c4ccccn4)c3)cnn2c1N [Compound 3.123, ((1R,3s,5S)-3-(7-amino-6-(methylsulfonyl)-3-(1-(pyridin-2-yl)-1H-pyrazol-4-yl)pyrazolo[1,5-a]pyrimidin-5-yl)-8-azabicyclo[3.2.1]octan-8-yl)(4H-1,2,4-triazol-3-yl)methanone]	100 to 1000	100 to 1000			
Nc1c(C2CC2)c([C@@H]2C[C@H]3CC[C@@H](C2)N3C(=O)c2nnc[nH]2)nc2c(C#Cc3cccnc3)cnn12 [Compound 8.62, ((1R,3s,5S)-3-(7-amino-6-cyclopropyl-3-(pyridin-3-ylethynyl)pyrazolo[1,5-a]pyrimidin-5-yl)-8-azabicyclo[3.2.1]octan-8-yl)(4H-1,2,4-triazol-3-yl)methanone]					IC50 ([1]; PC-3, PC3 cells): 1000 to 10000 nM; IC50 ([2]; PC-3, PC3 cells): 1000 to 10000 nM
CC(=O)c1c([C@@H]2C[C@H]3CC[C@@H](C2)N3C(=O)c2nnc[nH]2)nc2c(-c3cnc4ccc(CO)cc4c3)cnn2c1N [Compound 1.1.126, 1-(5-((1R,3s,5S)-8-(4H-1,2,4-triazole-3-carbonyl)-8-azabicyclo[3.2.1]octan-3-yl)-7-amino-3-(6-(hydroxymethyl)quinolin-3-yl)pyrazolo[1,5-a]pyrimidin-6-yl)ethanone]			1000 to 10000	1000 to 10000	
Cn1cc(-c2cnn3c(N)c(S(C)(=O)=O)c([C@@H]4C[C@H]5CC[C@@H](C4)N5C(=O)c4nnc[nH]4)nc23)cn1 [Compound 3.111, ((1R,3s,5S)-3-(7-amino-3-(1-methyl-1H-pyrazol-4-yl)-6-(methylsulfonyl)pyrazolo[1,5-a]pyrimidin-5-yl)-8-azabicyclo[3.2.1]octan-8-yl)(4H-1,2,4-triazol-3-yl)methanone]	1000 to 10000	1000 to 10000			
Cc1cnc(-c2ccc(-c3cnn4c(N)c(S(C)(=O)=O)c([C@H]5CC6CC[C@H](C5)N6C(=O)c5nnc[nH]5)nc34)cn2)s1 [Compound 3.180, ((1R,3s,5S)-3-(7-amino-6-(methylsulfonyl)-3-(6-(5-methylthiazol-2-yl)pyridin-3-yl)pyrazolo[1,5-a]pyrimidin-5-yl)-8-azabicyclo[3.2.1]octan-8-yl)(4H-1,2,4-triazol-3-yl)methanone]	1 to 100	1 to 100			
CC(=O)c1c([C@@H]2C[C@H]3CC[C@@H](C2)N3C(=O)c2cn[nH]c2)nc2c(-c3ccc(C(C)(C)O)nc3)cnn2c1N [Compound 7.12, 1-(5-((1R,3s,5S)-8-(1H-pyrazole-4-carbonyl)-8-azabicyclo[3.2.1]octan-3-yl)-7-amino-3-(6-(2-hydroxypropan-2-yl)pyridin-3-yl)pyrazolo[1,5-a]pyrimidin-6-yl)ethanone]			100 to 1000	100 to 1000	
Nc1cc([C@@H]2C[C@H]3CC[C@@H](C2)N3C(=O)c2nnc[nH]2)nc2c(-c3cnc4[nH]ccc4c3)cnn12 [Compound 2.13, ((1R,3s,5S)-3-(7-amino-3-(1H-pyrrolo[2,3-b]pyridin-5-yl)pyrazolo[1,5-a]pyrimidin-5-yl)-8-azabicyclo[3.2.1]octan-8-yl)(1H-1,2,4-triazol-5-yl)methanone]			1000 to 10000	1000 to 10000	
CS(=O)(=O)c1c([C@@H]2C[C@H]3CC[C@@H](C2)N3C(=N)N)nc2c(-c3ccc(-c4ccccc4)nc3)cnn2c1N [Compound 8.73, (1R,3s,5S)-3-(7-amino-6-(methylsulfonyl)-3-(6-phenylpyridin-3-yl)pyrazolo[1,5-a]pyrimidin-5-yl)-8-azabicyclo[3.2.1]octane-8-carboximidamide]					IC50 ([1]; PC-3, PC3 cells): 1000 to 10000 nM; IC50 ([2]; PC-3, PC3 cells): 1000 to 10000 nM
